Results: publication PMC11350787, “Antimicrobial Properties and Cytotoxicity of LL-37-Derived Synthetic Peptides to Treat Orthopedic Infections” (Antibiotics, 2024)
In brackets after ≈: the same amount, converted by molar mass.

Key:
S. aureus Sau89 biofilm = test: Biofilm removal activity (CLSM, LIVE/DEAD); type: cell-based; conditions: 72-h-old biofilm; 18 h; vancomycin 0.5% vs FK-16 75 µg/mL; p < 0.05
Experimental: (§1) Rough titanium disks (Adler Ortho, Cormano, Milan, Italy) were autoclaved at 121°C for 15 min and placed into sterile 6-well plates. S. epidermidis ATCC 35984, S. epidermidis GOI1153754-03-14, S. aureus ATCC 49,230 and S. aureus Sau89 were grown overnight in BHI broth at 37 °C. The culture was diluted up to 1.5 × 10^6 in BHI broth and 6 mL of each culture was inoculated in the disk containing wells. Two disks were inoculated with sterile BHI as sterility control. All the plates were incubated at 37 °C for 72 h. After incubation, the disks were gently washed with sterile saline to remove unattached cells. Each disk was treated with either vancomycin at 0.5% (Pharmatex, Milan, Italy), GF-17 (18.75 µg/mL) or FK-16 (75 µg/mL) for 18 h. Two disks for each bacterial inoculum were untreated as control. Subsequently, disks were gently washed with sterile saline solution and stained with Filmtracer^TM LIVE/DEAD^TM Biofilm Viability Kit (Thermo Fisher Diagnostics, Monza, Italy), according to the manufacturer’s instructions, washed again with sterile saline and observed with an upright TCS SP8 (Leica Microsystems CMS GmbH, Mannheim, Germany) using a 20X dry objective (HC PL FLUOTAR 20X/0.50 DRY). The images were acquired with Las X (Leica Microsystems CMS GmbH, Mannheim, Germany) and analyzed with Fiji software (Fiji, ImageJ version 1.53t, Wayne Rasband National Institutes of Health). For each channel, the biofilm area was measured after setting the threshold at 14 for the red channel and 20 for the green channel. The biofilm data were expressed as the percentage of red signal (dead cells) relative to the green channel (live cells). Finally, the data were normalized against the control, which was set to 1.

[1] = test system: S. epidermidis ATCC 35984 biofilm; test: Biofilm removal activity (CLSM, LIVE/DEAD); type: cell-based; conditions: 72-h-old biofilm; 18 h; vancomycin 0.5%; p < 0.01 vs FK-16
Experimental: as §1

[2] = test system: S. epidermidis GOI1153754-03-14 biofilm; test: Biofilm removal activity (CLSM, LIVE/DEAD); type: cell-based; conditions: titanium disks; 18 h treatment; FK-16 75 µg/mL, GF-17 18.75 µg/mL, vancomycin 0.5%
Experimental: as §1

[3] = test system: S. aureus ATCC 49230 biofilm; test: Biofilm removal activity (CLSM, LIVE/DEAD); type: cell-based; conditions: 72-h-old biofilm; 18 h; vancomycin 0.5% vs FK-16 75 µg/mL; p < 0.01
Experimental: as §1

S. aureus ATCC 43300 = test: microbe, parasite or virus in culture
Excerpt: (§2) A total of 18 bacterial strains relevant to orthopedic infections were used for microbiological tests, including 8 ATCC (American Type Culture Collection, ATCC, Manassas, VA, USA) and 10 clinical isolates (CI) from the Laboratory of Clinical Chemistry and Microbiology, IRCCS Ospedale Galeazzi–Sant’Ambrogio of Milan (Italy) strain collection. The ATCC strains were used for the first screening (MIC/MBC) of all the AMPs produced, while the clinical isolates were used for further MIC/MBC assays on selected AMPs. Among CI, S. epidermidis GOI1153754-03-14 has been already characterized and used in previous studies. All the strains were stocked at −80°C and working stocks were stored at −20 °C. At the occurrence, the bacteria were resuscitated in Brain Hearth Infusion (BHI, Millipore, Milan, Italy) broth at 37 °C for 18 h from the working stocks.
(§3) To determine the minimum inhibitory concentration (MIC) and the minimum bactericidal concentration (MBC), ISO20776-1 and Clinical and Laboratory Standards Institute guidelines were followed. A commercial synthetic LL-37 (Aurogene, Rome, Italy) was used as the control in the MIC and MBC assays. A stock solution of each AMP was prepared at 600 µg/mL to achieve a final concentration of 300 µg/mL. […] The MIC was determined according to the aforementioned standard guidelines. The MBC was determined by plating 2 µL of culture from each well of the MIC plates on a Tryptic Soy Agar (TSA, Millipore, Milan, Italy) plate and incubated for 24 h at 37 °C. The concentration at which there was no growth was recorded as MBC. Each experiment was carried out in triplicate. Representative MIC and MBC values for vancomycin and gentamicin were assessed to offer a benchmark comparison for the AMPs. Quality control was conducted with Staphylococcus aureus ATCC 29,213 and vancomycin according to EUCAST guidelines.

[4] = test system: S. epidermidis GOI1153754-03-14 (CI); test: microbe, parasite or virus in culture
Excerpt: as §2, §3

E. coli ATCC 25922 = test: microbe, parasite or virus in culture
Excerpt: as §2, §3

P. aeruginosa ATCC 27853 = test: microbe, parasite or virus in culture
Excerpt: as §2, §3

S. aureus ATCC 25923 = test: microbe, parasite or virus in culture
Excerpt: as §2, §3

## CN[C@H](CC(C)C)C(=O)N[C@H]1C(=O)N[C@@H](CC(N)=O)C(=O)N[C@H]2C(=O)N[C@H]3C(=O)N[C@H](C(=O)N[C@H](C(=O)O)c4cc(O)cc(O)c4-c4cc3ccc4O)[C@H](O)c3ccc(c(Cl)c3)Oc3cc2cc(c3O[C@@H]2O[C@H](CO)[C@@H](O)[C@H](O)[C@H]2O[C@H]2C[C@](C)(N)[C@H](O)[C@H](C)O2)Oc2ccc(cc2Cl)[C@H]1O [Van, vancomycin]
S. aureus Sau89 biofilm
  Dead bacteria in biofilm (quantitative analysis of fluorescent signals, relative mortality): more dead cells compared to FK-16 treatment
[1]
  Dead bacteria in biofilm (quantitative analysis of fluorescent signals, relative mortality): higher than the uninoculated control
[2]
  CLSM observation of treated 72-h-old biofilm (live green / dead red): less disruptive effect
[3]
  Dead bacteria in biofilm (quantitative analysis of fluorescent signals, relative mortality): more dead cells compared to FK-16 treatment
S. aureus ATCC 43300; S. aureus 43,300 as printed in text
  Susceptibility category by MIC (EUCAST clinical breakpoints tables, version 14): S
S. aureus ATCC 43300; Staphylococcus aureus, ATCC43300, 24 h, read-out: Minimum Bactericidal Concentration (MBC)
  MBC: 0.6 µg/mL (≈ 0.414 µM)
S. aureus ATCC 43300; Staphylococcus aureus, ATCC43300, read-out: Minimum Inhibitory Concentration (MIC)
  MIC: 0.6 µg/mL (≈ 0.414 µM)
[4]; S. epidermidis GOI1153754-03-14
  Susceptibility category by MIC (EUCAST clinical breakpoints tables, v. 14): S
[4]; Staphylococcus epidermidis, read-out: Minimum Bactericidal Concentration (MBC)
  MBC: 2.5 µg/mL (≈ 1.73 µM)
[4]; Staphylococcus epidermidis, read-out: Minimum Inhibitory Concentration (MIC)
  MIC: 1.25 µg/mL (≈ 0.863 µM)
E. coli ATCC 25922; E. coli 25922
  Susceptibility category by MIC (EUCAST clinical breakpoints tables, v. 14): R
E. coli ATCC 25922; Escherichia coli, ATCC25922, 24 h, read-out: Minimum Bactericidal Concentration (MBC)
  MBC: > 40 µg/mL
E. coli ATCC 25922; Escherichia coli, ATCC25922, read-out: Minimum Inhibitory Concentration (MIC)
  MIC: > 40 µg/mL
P. aeruginosa ATCC 27853; P. aeruginosa 27853
  Susceptibility category by MIC (EUCAST clinical breakpoints tables, v. 14): R
P. aeruginosa ATCC 27853; Pseudomonas aeruginosa, ATCC27853, 24 h, read-out: Minimum Bactericidal Concentration (MBC)
  MBC: > 40 µg/mL
P. aeruginosa ATCC 27853; Pseudomonas aeruginosa, ATCC27853, read-out: Minimum Inhibitory Concentration (MIC)
  MIC: > 40 µg/mL
S. aureus ATCC 25923; S. aureus 25923
  Susceptibility category by MIC (EUCAST clinical breakpoints tables, v. 14): S
S. aureus ATCC 25923; Staphylococcus aureus, ATCC25923, 24 h, read-out: Minimum Bactericidal Concentration (MBC)
  MBC: 0.6 µg/mL (≈ 0.414 µM)
S. aureus ATCC 25923; Staphylococcus aureus, ATCC25923, read-out: Minimum Inhibitory Concentration (MIC)
  MIC: 0.6 µg/mL (≈ 0.414 µM)
